Test results as given in patent US5200419A, “Substituted tetrazoles and derivatives thereof acting at muscarinic receptors” (Warner-Lambert Company, priority 1990, dated 1993).

Legend:
[1] = system: central muscarinic antagonist site; assay type: binding; details: rat cerebral cortex, [3H]quinuclidinyl benzilate
[2] = system: central muscarinic agonist site; experiment: Receptor [^3 H]Cis-methyldioxalane Assay (RCMD), rat cerebral cortex; assay type: binding
[3] = in vivo; cited from earlier work
[4] = aged humans and nonhuman primates with decreased cognition; cited from earlier work

CCc1nnnn1C1CN2CCC1CC2 (centres unmarked) [Example 1b, 3-(5-Ethyl-1H-tetrazol-1-yl)-1-azabicyclo[2.2.2]-octane]
RQNB (% Inhibition at 1 μM) [1]: 11% | RCMD (% Inhibition at 0.1 μM) [2]: 15%

Cc1nnnn1C1CN2CCC1CC2 (centres unmarked) [Example 1a, 3-(5-Methyl-1H-tetrazol-1-yl)-1-azabicyclo[2.2.2]octane]
RQNB (% Inhibition at 1 μM) [1]: 19% | RCMD (% Inhibition at 0.1 μM) [2]: 8%

Nc1ccncc1N [3,4-diaminopyridine]
age-related cognitive deficits [3]: ameliorate age-related cognitive deficits

c1nnnn1C1CN2CCC1CC2 (centres unmarked) [Example 1, 3-(1H-Tetrazol-1-yl)-1-azabicyclo[2.2.2]octane]
RQNB (% Inhibition at 1 μM) [1]: 7% | RCMD (% Inhibition at 0.1 μM) [2]: 0%

CNC(=O)Oc1ccc2c(c1)[C@]1(C)CCN(C)[C@@H]1N2C [physostigmine]
memory [4]: improved memory
